System: animal model of insulin-resistant diabetes
Assay: Histopathological change of liver, kidney and pancreas (H&E)
Assay type: in vivo, mice (C57BL/6)
Details: for Kidney Medullar apoptosis / Kidney Medullar mineralization / Kidney NHL / Kidney bowman's capsule hyperplasia / Kidney pappillary mineralization / Liver Apoptosis / Liver Cytoplasmic glycogen / Liver Eosinophlic focus of cellular alteration / Liver Mononuclear cell infiltrate / Liver NHL / Pancrease Apoptosis / Pancrease NHL / Pancrease islet degeneration / Pancrease islet hypertrophy / Pancrease islet, mononuclear cell infillitrate: count in group of 10 animals
Description: STZ (Sigma-aldrich, S0130, 40 mg/kg b.w., in 0.1 M citrate buffer pH 4.5) was intraperitoneally administered to 9-week-old male mice (C57BL/6) once/1 day for 5 days to perform a first disease induction. After 7 weeks of the first induction, a second induction was performed using the same method as the first induction. For 5 days of an STZ administration period for the first induction, 10% sucrose was administered as drinking water. In addition, after 14 days of the second administration, blood sugar was confirmed to confirm the induction rate, and the induced animals were separated into groups. Experimental substances (R)-4-{(R)-1-[7-(3,4,5-trimethoxy-phenyl)-[1,6] naphthyridine-5-yloxy]-ethyl}pyrrolidine-2-one (BI-1002494) and cromolyn (OC-101) were administered orally into the stomach at 10 mL/kg using an oral administration syringe (sonde) before 16:00 daily for 12 weeks at a frequency of 7 days/week at doses shown in Table 1 below, respectively, and dexamethasone was orally administered as a positive control substance.
At the end of the observation period, the mice in each group of Example 1 were confirmed to be dead, and the liver, kidney, and pancreas were extracted and fixed with 10% neutral buffered formalin (NBF) in at least 20 times the tissue volume. The fixed tissue was sectioned to a thickness of approximately 4 mm and then produced into a paraffin block through general tissue processing and embedding processes. Thereafter, the tissue was sectioned to a thickness of 4 μm using a rotary microtome, and then H&E staining was performed, and histopathological changes were observed.

[1] = administered groups 12.5-50 mg/kg, Table 8 and FIG. 2

COc1cc(-c2cc3ncccc3c(O[C@H](C)[C@H]3CNC(=O)C3)n2)cc(OC)c1OC [BI-1002494, (R)-4-{(R)-1-[7-(3,4,5-trimethoxy-phenyl)-[1,6]naphthyridine-5-yloxy]-ethyl}pyrrolidine-2-one]
Kidney Medullar apoptosis (12.5 mg/kg (G4)): 3 | Kidney Medullar mineralization (12.5 mg/kg (G4)): 0 | Kidney NHL (12.5 mg/kg (G4)): 7 | Kidney bowman's capsule hyperplasia (12.5 mg/kg (G4)): 0 | Kidney pappillary mineralization (12.5 mg/kg (G4)): 0 | Liver Apoptosis (12.5 mg/kg (G4)): 2 | Liver Cytoplasmic glycogen (12.5 mg/kg (G4)): 1 | Liver Eosinophlic focus of cellular alteration (12.5 mg/kg (G4)): 0 | Liver Mononuclear cell infiltrate (12.5 mg/kg (G4)): 1 | Liver NHL (12.5 mg/kg (G4)): 7 | Pancrease Apoptosis (12.5 mg/kg (G4)): 1 | Pancrease NHL (12.5 mg/kg (G4)): 5 | Pancrease islet degeneration (12.5 mg/kg (G4)): 2 | Pancrease islet hypertrophy (12.5 mg/kg (G4)): 1 | Pancrease islet, mononuclear cell infillitrate (12.5 mg/kg (G4)): 1 | Kidney Medullar apoptosis (25 mg/kg (G5)): 2 | Kidney Medullar mineralization (25 mg/kg (G5)): 1 | Kidney NHL (25 mg/kg (G5)): 7 | Kidney bowman's capsule hyperplasia (25 mg/kg (G5)): 0 | Kidney pappillary mineralization (25 mg/kg (G5)): 0 | Liver Apoptosis (25 mg/kg (G5)): 3 | Liver Cytoplasmic glycogen (25 mg/kg (G5)): 0 | Liver Eosinophlic focus of cellular alteration (25 mg/kg (G5)): 0 | Liver Mononuclear cell infiltrate (25 mg/kg (G5)): 2 | Liver NHL (25 mg/kg (G5)): 7 | Pancrease Apoptosis (25 mg/kg (G5)): 0 | Pancrease NHL (25 mg/kg (G5)): 8 | Pancrease islet degeneration (25 mg/kg (G5)): 1 | Pancrease islet hypertrophy (25 mg/kg (G5)): 1 | Pancrease islet, mononuclear cell infillitrate (25 mg/kg (G5)): 0 | Kidney Medullar apoptosis (50 mg/kg (G6, G7)): 1 | Kidney Medullar mineralization (50 mg/kg (G6, G7)): 2 | Kidney NHL (50 mg/kg (G6, G7)): 7 | Kidney bowman's capsule hyperplasia (50 mg/kg (G6, G7)): 0 | Kidney pappillary mineralization (50 mg/kg (G6, G7)): 0 | Liver Apoptosis (50 mg/kg (G6, G7)): 2 | Liver Cytoplasmic glycogen (50 mg/kg (G6, G7)): 0 | Liver Eosinophlic focus of cellular alteration (50 mg/kg (G6, G7)): 0 | Liver Mononuclear cell infiltrate (50 mg/kg (G6, G7)): 1 | Liver NHL (50 mg/kg (G6, G7)): 8 | Pancrease Apoptosis (50 mg/kg (G6, G7)): 0 | Pancrease NHL (50 mg/kg (G6, G7)): 7 | Pancrease islet degeneration (50 mg/kg (G6, G7)): 1 | Pancrease islet hypertrophy (50 mg/kg (G6, G7)): 2 | Pancrease islet, mononuclear cell infillitrate (50 mg/kg (G6, G7)): 0 | cytoplasmic glycogen in the liver [1]: reduced in the liver | medullar apoptosis in the kidney [1]: reduced in the kidney in a dose-dependent manner

— patent publication US20240207236A1, “COMPOUND FOR PREVENTING OR TREATING DIABETES” (ONCOCROSS CO., LTD., priority 2021, published 2024)
